Data as given in article PMC5036131, “Fragment-based discovery of a new family of non-peptidic small-molecule cyclophilin inhibitors with potent antiviral activities” (Nature Communications, 2016).

Legend:
Caco-2 cells = assay: Caco-2 cell permeability; assay type: in vitro ADME; settings: Caco-2 monolayers, 10 μM
Method: Permeability and efflux potential were determined using confluent (≥21 day) monolayers of Caco-2 cells grown on transwell filters. Compounds were added to donor wells at a target concentration of 10 μM and rates of appearance in receiver wells (containing 1% BSA to maintain sink conditions) were determined by liquid chromatography coupled to tandem mass spectrometry (LC-MS/MS).

Huh7 cells = assay: Cellular toxicity in Huh7 replicon cells; settings: read-out: HCV genotype 1b replicon CC50; Huh7 cells
CypB = target: T1, CypB (Homo sapiens, UniProt P23284); assay: biochemical; assay type: biochemical; settings: PPIase enzyme assay, 20 °C, mean±s.d.; read-out: CypB IC50
T1 construct: hexahistidine tag (His-Tag) (C); made in house; host or cells: E. coli C41(DE3)
Method: CypA and CypB proteins carrying a hexahistidine tag (His-Tag) at their carboxy terminus were expressed in E. coli and purified. Briefly, cultures of C41(DE3) cells were grown at 37 °C for 1 h until the culture reached an OD of 0.6 at 600 nm and then induced with 1 mM isopropyl-β-D-thiogalactopyranoside for 4 h at 37 °C (CypA) or overnight at 22 °C (CypB). Cell pellets were resuspended in a lysis buffer 20 mM NaH2PO4 pH 7.8, 300 mM NaCl, 7 mM β-mercaptoethanol, 1 mg ml^−1 lysozyme, 0.1 U μl^−1 desoxyribonuclease and complete protease inhibitor tablets (Roche Diagnostics Corporation, Indianapolis, Indiana). […] The bound protein was eluted in 1 ml fractions with a buffer composed of 20 mM NaH2PO4 pH 7.8, 300 mM NaCl, 250 mM imidazole, 7 mM β-mercaptoethanol and 10% glycerol, monitored by the Bradford colorimetric assay. The purity of each cyclophilin was determined by Coomassie-stained SDS–PAGE analysis.

MRC5 cells = assay: Cellular toxicity in MRC5 cells; settings: read-out: MRC5 cells CC50; MRC5 cells
CYP1A2 = target: T2, CYP1A2 (Homo sapiens, UniProt P05177); assay: Metabolism by recombinant human cytochrome P450, CYP1A2; assay type: in vitro ADME; settings: recombinant enzyme
T2 sequence (P05177 1-516): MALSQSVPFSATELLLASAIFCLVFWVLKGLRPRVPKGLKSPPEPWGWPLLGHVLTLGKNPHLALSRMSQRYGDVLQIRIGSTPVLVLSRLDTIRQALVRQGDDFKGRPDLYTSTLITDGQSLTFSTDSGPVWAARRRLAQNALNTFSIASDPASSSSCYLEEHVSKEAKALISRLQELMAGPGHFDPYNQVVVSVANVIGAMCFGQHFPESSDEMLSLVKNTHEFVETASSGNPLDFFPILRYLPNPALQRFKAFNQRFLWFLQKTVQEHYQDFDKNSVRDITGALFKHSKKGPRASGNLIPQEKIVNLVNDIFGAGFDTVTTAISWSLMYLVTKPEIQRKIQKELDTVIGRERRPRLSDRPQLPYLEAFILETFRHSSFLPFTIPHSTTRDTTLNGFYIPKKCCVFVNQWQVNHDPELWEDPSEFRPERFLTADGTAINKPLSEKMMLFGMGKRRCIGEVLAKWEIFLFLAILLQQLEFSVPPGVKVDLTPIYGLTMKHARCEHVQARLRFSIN
Method: (§1) […] of compound was incubated with individual bacterially expressed recombinant human cytochromes P450 co-expressed with human NADPH cytochrome P450 reductase. […] Enzyme-selective positive control substrates were tested in parallel.

HIV-IIIb = assay: Anti-HIV activity in MT4 cells; assay type: cell-based, human immunodeficiency virus; settings: 5 days
CYP2B6 = target: T3, CYP2B6 (Homo sapiens, UniProt P20813); assay: Metabolism by recombinant human cytochrome P450, CYP2B6; assay type: in vitro ADME; settings: recombinant enzyme
T3 sequence (P20813 1-491): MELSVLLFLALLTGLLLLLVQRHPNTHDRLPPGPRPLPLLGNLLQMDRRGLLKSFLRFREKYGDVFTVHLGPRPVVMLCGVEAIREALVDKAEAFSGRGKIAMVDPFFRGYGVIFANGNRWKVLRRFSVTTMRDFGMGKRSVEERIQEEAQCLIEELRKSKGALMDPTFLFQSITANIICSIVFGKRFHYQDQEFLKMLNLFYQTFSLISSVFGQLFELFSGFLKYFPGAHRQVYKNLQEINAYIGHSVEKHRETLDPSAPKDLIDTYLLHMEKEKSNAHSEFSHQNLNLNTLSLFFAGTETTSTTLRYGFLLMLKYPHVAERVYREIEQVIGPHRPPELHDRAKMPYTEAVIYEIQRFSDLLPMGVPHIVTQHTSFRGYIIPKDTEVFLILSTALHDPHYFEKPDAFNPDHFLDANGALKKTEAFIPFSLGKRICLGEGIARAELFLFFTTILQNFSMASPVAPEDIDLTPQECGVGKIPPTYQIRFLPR
Method: as §1

CYP2C8 = target: T4, CYP2C8 (Homo sapiens, UniProt P10632); assay: Cytochrome P450 enzyme inhibition assay, CYP2C8; assay type: in vitro ADME; set-up: incubated with human hepatic microsomal fractions and NADPH; from tissue; host or cells: human hepatic microsomal fractions; settings: human hepatic microsomal fractions, up to 25 μM
T4 sequence (P10632 1-490): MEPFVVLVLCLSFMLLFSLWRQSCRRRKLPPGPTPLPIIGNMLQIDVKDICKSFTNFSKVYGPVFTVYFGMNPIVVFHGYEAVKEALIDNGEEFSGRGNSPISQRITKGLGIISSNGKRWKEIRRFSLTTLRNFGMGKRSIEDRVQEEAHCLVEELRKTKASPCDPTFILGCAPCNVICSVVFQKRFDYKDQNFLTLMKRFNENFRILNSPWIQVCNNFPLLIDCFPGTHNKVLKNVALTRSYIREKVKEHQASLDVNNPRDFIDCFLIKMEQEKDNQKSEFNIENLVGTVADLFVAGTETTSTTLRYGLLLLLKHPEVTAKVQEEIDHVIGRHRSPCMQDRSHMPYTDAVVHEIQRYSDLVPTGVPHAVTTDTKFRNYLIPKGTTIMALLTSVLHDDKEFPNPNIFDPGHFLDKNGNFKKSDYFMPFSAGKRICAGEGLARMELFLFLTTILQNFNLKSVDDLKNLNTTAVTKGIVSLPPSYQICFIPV
Method: Up to 25 μM of compounds 29 and 30 was incubated with human hepatic microsomal fractions and NADPH in the presence of individual probe substrates. All assays were designed so that conditions were linear with respect to time and protein concentration. Substrates were present at concentrations equal to or lower than their respective Km values. Enzyme selective products were determined by fluorometry (ethoxyresorufin O-deethylase) or by specific LC-MS/MS assays. Relative enzyme activities were determined by comparison with those assayed with DMSO vehicle instead of inhibitor. IC50 values were calculated by nonlinear curve fitting using a sigmoidal model. Positive control inhibitors for each enzyme were tested in parallel.

T1 sequence (P23284 34-216): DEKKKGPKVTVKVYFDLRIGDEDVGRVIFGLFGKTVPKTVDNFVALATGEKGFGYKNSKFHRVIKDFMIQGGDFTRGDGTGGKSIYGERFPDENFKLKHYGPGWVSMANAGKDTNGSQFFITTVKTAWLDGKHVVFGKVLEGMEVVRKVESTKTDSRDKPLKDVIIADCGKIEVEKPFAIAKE

## CSCCC(NC(=O)NCc1ccc(N)cc1)C(=O)N1CCCC1c1ccccc1SC.O=C(O)C(F)(F)F (stereo not shown) [Compound 30]
Caco-2 cells
  Apparent permeability Forward: 195 nm/s
Caco-2 cells; listed as compound 30
  Apparent permeability Forward: high
Caco-2 cells; reverse
  Apparent permeability Reverse: 397 nm/s
Huh7 cells
  CC50: > 100 µM
CypB
  IC50: 1.9 ± 1.5 µM
MRC5 cells
  CC50: > 100 µM
CYP1A2
  Rate of metabolism by human cytochrome P450 CYP1A2: < 0.12 pmol/pmol P450/min
CYP1A2; listed as compound 30
  Rate of metabolism by human cytochrome P450 CYP1A2: Neither compound 29 nor compound 30 was metabolized
HIV-IIIb
  EC50: 15 ± 1.2 µM
CYP2B6
  Rate of metabolism by human cytochrome P450 CYP2B6: < 0.12 pmol/pmol P450/min
CYP2B6; listed as compound 30
  Rate of metabolism by human cytochrome P450 CYP2B6: Neither compound 29 nor compound 30 was metabolized
CYP2C8
  IC50: 9.4 µM
  Inhibition of cytochrome P450 activity, IC50 CYP2C8: moderate inhibitors
